Assays:
HIF-1α = test: Immunohistochemical staining of tumor sections for HIF-1α; assay type: in vivo, mouse; conditions: tumors excised from treated mice
Description: (§1) Histopathological changes in the subcutaneous tumors: To analyze the tumor vasculature of TAT PTD, SM treated and P44 treated mice, the tumor sections were stained with HE. […] In SM treated tumors, due to compressed vessels, the shape of RBCs were also distorted (FIG. 7A, lower right panel, arrow marked). […] The presence of hypoxic cells is a hallmark of cancer (Brown, J. M., and Wilson, W. R. (2004) Nat. Rev. Cancer 4, 437-447; Minchinton, A. I., and Tannock, I. F. (2006) Nat. Rev. Cancer 6, 583-592). Cellular responses to hypoxia are triggered by the hypoxia inducible factor-1 alpha (HIF-1α) that is known to restore tissue homeostasis in hypoxic conditions (Semenza, G. L. (2000) Genes Dev. 14, 1983-1991). To determine the status of HIF-1α expression, immunohistochemical analysis was performed on tumor sections obtained from SM and P44 treated mice by using antibody against HIF-1 α. […] All these observations implicate the significance of P44 peptide in restoring tissue architecture in tumor cells and thus potentiates its role as a tumor regressor.
(§2) FIG. 7. Histopathological changes in B16F1-induced tumors. A, Hematoxylin and eosin staining of tumor sections excised from mice treated with either P44 (upper panel) or SM (lower panel) peptide. […] The images have been recorded at 20× and 40×. B, Immunohistochemistry of paraffin embedded tumor sections from P44 treated as well as, SM treated mice. After antigen unmasking, sections were stained with HIF-1α antibody (middle panel) and detected using Cy-3 conjugated mouse immunoglobulin. Sections were counterstained with DAP1 for nuclear localization (left panel). Right panel corresponds to the merged image.
Immunohistochemical staining of tumor sections: Tumor sections in paraffin-embedded blocks were transferred to poly-L-lysine coated glass slides and air-dried overnight at 37° C. They were dewaxed in xylene (three changes) and […] in graded series of decreasing ethanol concentrations. […] Thereafter, detected using cy-3 fluorescence labeled secondary antibody. […]

[1] = target: T1, p53 (serine-15 phosphorylation) (Homo sapiens, UniProt P04637); test: Western blotting for total p53 and phospho serine-15 p53 in peptide-treated HEK 293 cells; assay type: cell-based; conditions: HEK 293, TAT-PTD alone 50-100 μM
T1 construct: HEK 293 (p53^+/+) cells; endogenous in cells; host or cells: HEK 293
Experimental: P44 peptide controls the activity of cell cycle regulatory proteins: The minimal dose of P44 peptide that was functionally effective in activating p53 was evaluated by incubating HEK 293 cells with varying concentrations of P44 peptide (1-100 μM) (FIG. 3A) and after 12 h of incubation, protein lysates were prepared and processed for immunoblotting with total p53 (DO-1) and p53 ser-15 phospho-specific antibodies. […] However, there was a 4.5-fold increase in the expression of phosphorylated p53 (pSerine-15 p53) in P44 peptide-treated cells (FIG. 3A, lanes 2-6). To exclude the possibility that p53 activation is an effect of the protein transduction domain of HIV-1 TAT protein, similar set of experiment was performed using TAT-PTD peptide alone (consisting of only the 11-mer TAT-sequence). […] This observation reconfirmed that the RS domain (288-350 aa) of SMAR1 could exclusively activate p53 by mediating its phosphorylation specifically at serine-15 residue. Serine-15 phosphorylation of p53 is associated with its increased transcription efficiency, decreased affinity for MDM2, and its increased nuclear retention. One of the target genes activated by p53 is p21, an inhibitor of a subset of the cyclin-dependent kinases including cdc-2 (Sherr, C. J., and Roberts, J. M. (1999) Genes Dev. 13, 1501-1512). To evaluate the significance of peptide-mediated p53 activation, P44 peptide-treated lysates were further checked for tyrosine 15 phosphorylation of cdc2. […] HEK 293 cells were treated with SM peptide and checked for p53 as well as pcdc-2 levels.
Serine 347 residue of SMAR1: critical for mediating the effects of full-length SMAR1: Once it was established that the serine motif (SSSSYS) plays a pivotal role in SMAR1-mediated p53 activation, it got necessary to identify the serine residue within this motif that might be necessary in mediating these effects. To identify the critical serine residue within P44 peptide, various point-mutant peptides were custom synthesized, that varied with respect to the position of serine residue that was mutated (Table 1). To evaluate the functionality of mutant chimeric TAT-SMAR1 peptides [PS347A, PS348A, PS349A, PS350A and RS mutant (SM)] in comparison to the TAT-SMAR1 WT peptide (P44), HEK 293 cells were treated with 10 μM concentration of either of the peptides and protein lysates were prepared after 12 h incubation period. The lysates were then processed for immunoblotting with pSer-15 p53 and pcdc-2 antibodies. […] However, this was not the case with other mutated peptides. When the alanine was replaced back to serine at the 347 residue (FIG. 4A, lanes 3-5), the functionality of the peptide was restored as observed with increase in pcdc-2 levels. […] However, in case of SM (where serine residues from 347-350 were replaced by alanines) treated cells (FIG. 4A, lane 7), there was no difference in the pSer-15 p53 as well as pcdc-2 levels compared to either untreated or PS347A treated cells (FIG. 4A, lanes 1 and 2, respectively).
FIG. 3. P44 peptide activates p53-mediated cell cycle pathway. A, HEK 293 cells were seeded at a density of 5×10^5 and after 24 h, was incubated with increasing concentrations of the TAT-SMAR1 WT (P44) peptide. Protein lysates were prepared and then immunoblotted with antibodies to total p53, phospho serine-15. B, The same set of experiment was repeated with TAT PTD peptide representing the PTD carrier sequence alone and immunoblotted with phospho serine-15, in comparison of P44 treated cells. C, The status of phospho cdc-2 was further analyzed in P44 peptide treated cells. Total […] was used as an internal control. D, The same set of experiments were again repeated using TAT-SMAR1 RS mutant (SM) peptide and whole cell lysates were probed for phospho p53 serine-15 and pcdc-2 antibodies. […] was used as a loading control.
FIG. 4. Serine 347 residue of SMAR1 mediates p53 activation and stabilization. […]

[2] = system: tumor vasculature of B16F1-induced tumors; test: Hematoxylin and eosin histopathology of B16F1-induced tumors; assay type: in vivo, mouse; conditions: tumors excised from treated mice
Description: as §1, §2

[3] = system: B16F1 mouse melanoma cells; test: B16F1 melanoma tumor regression in nude mice; assay type: in vivo; conditions: nude mice, 200 μg/mouse thrice a week, 4 weeks
Experimental: P44 peptide: A potent tumor regressor: To test whether the differences in SMAR1 derived peptide-induced activation of p53 translated to differences in drug sensitivity in vivo, B16F1 mouse melanoma cells were subcutaneously grafted into athymic nude mice, and tumor growth together with therapeutic sensitivity was monitored. Once the tumor nodule was established into the mouse, P44 peptide was injected in the tumor localized areas at a physiological dose of 200 μg/mouse thrice a week. The treatment was continued for 4 weeks. In a parallel experiment, either TAT PTD or TAT-SMAR1 RS mutant peptide, SM (FIGS. 6A and B, respectively) was injected in tumor bearing mice to be used as control.
FIG. 6D-F corresponds to the magnified tumor images of FIG. 6A-C, respectively. […] Thus, P44 peptide mimics the function of full-length SMAR1 in drastically reducing the tumor growth.
FIG. 6. Tumor regression by TAT-SMAR1 WT peptide. A, Nude mice were allowed to develop tumors by subcutaneously injecting B 16F1 mouse melanoma cells. Mice with size-matched tumors were then randomized into three treatment groups (five animals per group); TAT PTD alone (panel A), TAT-SMART RS mutant (SM) (panel B) and TAT-SMAR1 WT (P44) (panel C). Panels D, E and F correspond to the magnified images of panels A, B and C, respectively. Mice were treated with either of the peptides at a dose of 200 μg/mice/thrice a week for consecutive 4 weeks. The tumors were then weighed and plotted for each mouse in all the treatment groups (panel G).
Animal model for tumorgenesis: B16F1 mouse melanoma cells in the exponential growth phase were trypsinized (Invitrogen) and washed twice with PBS. Cell number and viability was assessed and cell cultures with viability >90% were used. Tumors were then established in nude mice by subcutaneous injection of 2×10^6 B16F1 cells. Five mice were used in each set of experiments. The mice were maintained under pathogen-free conditions. When the subcutaneous tumor was clearly visible, the TAT-SMAR1 WT (P44) peptide treatment was started. The P44 peptide was subcutaneously injected proximal to the tumor sites at a dose of 200 μg/mouse thrice a week. The treatment was administered for 4 weeks. For control treatment, TAT PTD alone and TAT SMAR1 RS mutant peptide (SM) were injected in the same manner as the P44 peptide.

T1 sequence (P04637 whole entry): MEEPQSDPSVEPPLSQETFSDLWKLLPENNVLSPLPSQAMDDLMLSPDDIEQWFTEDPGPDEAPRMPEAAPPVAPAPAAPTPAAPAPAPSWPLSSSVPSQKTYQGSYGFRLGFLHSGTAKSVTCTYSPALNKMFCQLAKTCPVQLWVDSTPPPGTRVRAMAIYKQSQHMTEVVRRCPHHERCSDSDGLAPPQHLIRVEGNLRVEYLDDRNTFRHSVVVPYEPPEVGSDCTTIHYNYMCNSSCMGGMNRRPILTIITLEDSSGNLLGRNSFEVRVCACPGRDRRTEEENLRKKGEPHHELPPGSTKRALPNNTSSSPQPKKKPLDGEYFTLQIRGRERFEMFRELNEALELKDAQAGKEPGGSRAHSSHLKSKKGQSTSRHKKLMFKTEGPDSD

## YGRKKRRQRRR [TAT PTD, reference compound]
HIF-1α
  HIF-1α expression in tumor sections: increased expression of HIF-1α
[1]
  phosphorylation of serine-15 residue of p53: no phosphorylation
[2]
  tumor vascular architecture (HE staining): poorly organized vascular architecture and compressed blood vessels
[3]
  tumor weight after excision: 1.5 to 3 g

Source: patent US8420100B2, “Tumor suppressor activating polypeptides and uses thereof” (Department of Biotechnology, priority 2006, dated 2013)
